Measurements reported in PubChem BioAssay AID222 (DTP/NCI, 2004).
“And” between values parts separate entries of the source, which are not always exact repeats. Equal values may be shown once. Toxic doses and inconclusive results are not listed.

Tested on: C57BL/6 mice, intracerebral ependymoblastoma, median survival T/C
Test: NCI In Vivo Anticancer Drug Screen. Data for tumor model Ependymoblastoma (intracerebral) in C57BL/6 mice
Settings: endpoint: median survival time, higher = longer survival
Method: The antitumor activity of compounds was measured in mice bearing transplantable tumors. Survival or tumor size were measured and the results are expressed as the measurement made in the treated group (T) divided by the measurement made in the vehicle treated control group (C). The tumor model used in this assay is Ependymoblastoma (intracerebral) in C57BL/6 mice

[1] = dose: 8.0 mg/kg/injection, schedule: Q01DX005 (ip), vehicle: saline with Tween-80
[2] = dose: 16.0 mg/kg/injection, schedule: Q01DX005 (ip), vehicle: saline with Tween-80
[3] = dose: 50.0 mg/kg/injection, schedule: Q01DX005 (ip), vehicle: saline with Tween-80
[4] = dose: 100.0 mg/kg/injection, schedule: Q01DX005 (ip), vehicle: saline with Tween-80
[5] = dose: 8.0 mg/kg/injection, schedule: Q01DX005 (ip), vehicle: saline
[6] = dose: 16.0 mg/kg/injection, schedule: Q01DX005 (ip), vehicle: saline
[7] = dose: 32.0 mg/kg/injection, schedule: Q01DX005 (ip), vehicle: saline

## Cc1[nH]c(=O)[nH]c(=O)c1N(CCF)CCCl
dose: 2.0 mg/kg/injection, schedule: Q01DX005 (ip), vehicle: saline with Tween-80
  T/C: 96 % of control and 104 % of control
dose: 4.0 mg/kg/injection, schedule: Q01DX005 (ip), vehicle: saline with Tween-80
  T/C: 97 % of control and 105 % of control
dose: 4.0 mg/kg/injection, schedule: Q## X006 (ip), vehicle: Klucel (hydroxypropylcellulose) (HPC)
  T/C: 111 % of control
[1]
  T/C: 97 % of control and 106 % of control
dose: 8.0 mg/kg/injection, schedule: Q## X006 (ip), vehicle: Klucel (hydroxypropylcellulose) (HPC)
  T/C: 106 % of control
dose: 8.0 mg/kg/injection, schedule: Q#A X002 (ip), vehicle: Klucel (hydroxypropylcellulose) (HPC)
  T/C: 101 % of control
dose: 16.0 mg/kg/injection, schedule: Q01DX001 (ip), vehicle: Klucel (hydroxypropylcellulose) (HPC)
  T/C: 93 % of control and 102 % of control
[2]
  T/C: 108 % of control and 109 % of control
dose: 16.0 mg/kg/injection, schedule: Q01DX005 (oral), vehicle: Klucel (hydroxypropylcellulose) (HPC)
  T/C: 111 % of control
dose: 16.0 mg/kg/injection, schedule: Q#A X002 (ip), vehicle: Klucel (hydroxypropylcellulose) (HPC)
  T/C: 99 % of control
dose: 32.0 mg/kg/injection, schedule: Q01DX001 (ip), vehicle: Klucel (hydroxypropylcellulose) (HPC)
  T/C: 92 % of control and 101 % of control and 105 % of control
dose: 32.0 mg/kg/injection, schedule: Q01DX005 (oral), vehicle: Klucel (hydroxypropylcellulose) (HPC)
  T/C: 94 % of control
dose: 32.0 mg/kg/injection, schedule: Q#A X002 (ip), vehicle: Klucel (hydroxypropylcellulose) (HPC)
  T/C: 111 % of control
dose: 64.0 mg/kg/injection, schedule: Q01DX001 (ip), vehicle: Klucel (hydroxypropylcellulose) (HPC)
  T/C: 101 % of control and 114 % of control
dose: 64.0 mg/kg/injection, schedule: Q01DX001 (oral), vehicle: Klucel (hydroxypropylcellulose) (HPC)
  T/C: 96 % of control and 107 % of control and 111 % of control
dose: 128.0 mg/kg/injection, schedule: Q01DX001 (ip), vehicle: Klucel (hydroxypropylcellulose) (HPC)
  T/C: 87 % of control
dose: 128.0 mg/kg/injection, schedule: Q01DX001 (oral), vehicle: Klucel (hydroxypropylcellulose) (HPC)
  T/C: 90 % of control and 111 % of control
dose: 256.0 mg/kg/injection, schedule: Q01DX001 (oral), vehicle: Klucel (hydroxypropylcellulose) (HPC)
  T/C: 107 % of control and 86 % of control
dose: 512.0 mg/kg/injection, schedule: Q01DX001 (oral), vehicle: Klucel (hydroxypropylcellulose) (HPC)
  T/C: 115 % of control

## O=c1c(O)c(-c2ccc(O)c(O)c2)oc2cc(O)cc(O)c12
dose: 12.5 mg/kg/injection, schedule: Q01DX005 (ip), vehicle: Klucel (hydroxypropylcellulose) (HPC)
  T/C: 95 % of control
dose: 12.5 mg/kg/injection, schedule: Q01DX005 (ip), vehicle: other
  T/C: 107 % of control
dose: 25.0 mg/kg/injection, schedule: Q01DX005 (ip), vehicle: Klucel (hydroxypropylcellulose) (HPC)
  T/C: 104 % of control
dose: 25.0 mg/kg/injection, schedule: Q01DX005 (ip), vehicle: other
  T/C: 93 % of control
dose: 50.0 mg/kg/injection, schedule: Q01DX005 (ip), vehicle: Klucel (hydroxypropylcellulose) (HPC)
  T/C: 100 % of control
dose: 50.0 mg/kg/injection, schedule: Q01DX005 (ip), vehicle: other
  T/C: 91 % of control
dose: 100.0 mg/kg/injection, schedule: Q01DX005 (ip), vehicle: Klucel (hydroxypropylcellulose) (HPC)
  T/C: 99 % of control
dose: 100.0 mg/kg/injection, schedule: Q01DX005 (ip), vehicle: other
  T/C: 102 % of control
dose: 200.0 mg/kg/injection, schedule: Q01DX005 (ip), vehicle: other
  T/C: 105 % of control

## COc1cc(C[C@H]2c3cc(OC)c(OC)cc3CCN2C)c(Oc2cc3c(cc2OC)-c2c(OC)c(OC)cc4c2[C@H](C3)N(C)CC4)cc1OC
dose: 12.5 mg/kg/injection, schedule: Q01DX005 (ip), vehicle: saline with Tween-80
  T/C: 97 % of control
dose: 25.0 mg/kg/injection, schedule: Q01DX005 (ip), vehicle: saline with Tween-80
  T/C: 92 % of control
[3]
  T/C: 100 % of control
[4]
  T/C: 93 % of control

## CC(=O)CC(c1ccccc1)c1c(O)c2ccccc2oc1=O (stereo unspecified)
dose: 0.09 mg/kg/injection, schedule: Q01DX005 (ip), vehicle: saline
  T/C: 93 % of control
dose: 0.18 mg/kg/injection, schedule: Q01DX005 (ip), vehicle: saline
  T/C: 115 % of control
dose: 0.36 mg/kg/injection, schedule: Q01DX005 (ip), vehicle: saline
  T/C: 98 % of control
dose: 1.44 mg/kg/injection, schedule: Q01DX005 (ip), vehicle: saline
  T/C: 87 % of control

## CCCN(C)C(=O)N(CCCl)N=O
dose: 39.0 mg/kg/injection, schedule: Q01DX001 (ip), vehicle: other
  T/C: 182 % of control
dose: 62.5 mg/kg/injection, schedule: Q01DX001 (ip), vehicle: other
  T/C: 309 % of control
dose: 78.0 mg/kg/injection, schedule: Q01DX001 (ip), vehicle: other
  T/C: 227 % of control
dose: 125.0 mg/kg/injection, schedule: Q01DX001 (ip), vehicle: other
  T/C: 309 % of control
dose: 156.0 mg/kg/injection, schedule: Q01DX001 (ip), vehicle: other
  T/C: 308 % of control

## O=c1[nH]cc(F)c(=O)[nH]1
dose: 2.0 mg/kg/injection, schedule: Q01DX005 (ip), vehicle: saline
  T/C: 113 % of control
dose: 2.5 mg/kg/injection, schedule: Q01DX005 (ip), vehicle: saline
  T/C: 101 % of control
dose: 4.0 mg/kg/injection, schedule: Q01DX005 (ip), vehicle: saline
  T/C: 108 % of control
dose: 5.0 mg/kg/injection, schedule: Q01DX005 (ip), vehicle: saline
  T/C: 94 % of control
[5]
  T/C: 97 % of control
dose: 10.0 mg/kg/injection, schedule: Q01DX005 (ip), vehicle: saline
  T/C: 97 % of control
[6]
  T/C: 106 % of control
dose: 20.0 mg/kg/injection, schedule: Q01DX005 (ip), vehicle: saline
  T/C: 95 % of control
[7]
  T/C: 106 % of control

## [N-]=[N+]=CC(=O)CCC(N)C(=O)O (stereo unspecified)
dose: 0.05 mg/kg/injection, schedule: Q01DX005 (ip), vehicle: saline
  T/C: 101 % of control
dose: 0.1 mg/kg/injection, schedule: Q01DX005 (ip), vehicle: saline
  T/C: 115 % of control
dose: 0.2 mg/kg/injection, schedule: Q01DX005 (ip), vehicle: saline
  T/C: 106 % of control
dose: 0.8 mg/kg/injection, schedule: Q01DX005 (ip), vehicle: saline
  T/C: 121 % of control

## C(COCCOCC1CO1)OCCOCC1CO1 (stereo unspecified)
[3]
  T/C: 93 % of control
[4]
  T/C: 96 % of control
dose: 200.0 mg/kg/injection, schedule: Q01DX005 (ip), vehicle: saline with Tween-80
  T/C: 96 % of control
dose: 400.0 mg/kg/injection, schedule: Q01DX005 (ip), vehicle: saline with Tween-80
  T/C: 113 % of control

## O=C(NP(=O)(N1CC1)N1CC1)c1cc(I)ccc1I
dose: 8.0 mg/kg/injection, schedule: Q01DX005 (ip), vehicle: Klucel (hydroxypropylcellulose) (HPC)
  T/C: 106 % of control
[1]
  T/C: 91 % of control and 104 % of control
[5]
  T/C: 102 % of control and 107 % of control
dose: 16.0 mg/kg/injection, schedule: Q01DX005 (ip), vehicle: Klucel (hydroxypropylcellulose) (HPC)
  T/C: 113 % of control
[2]
  T/C: 101 % of control and 106 % of control
[6]
  T/C: 102 % of control and 119 % of control
dose: 32.0 mg/kg/injection, schedule: Q01DX005 (ip), vehicle: Klucel (hydroxypropylcellulose) (HPC)
  T/C: 120 % of control
dose: 32.0 mg/kg/injection, schedule: Q01DX005 (ip), vehicle: saline with Tween-80
  T/C: 101 % of control
[7]
  T/C: 113 % of control
dose: 64.0 mg/kg/injection, schedule: Q01DX005 (ip), vehicle: saline
  T/C: 119 % of control and 124 % of control

## Nc1ncnc2c1ncn2C1OC(COP(=O)(O)O)C(O)C1O (stereo unspecified)
dose: 100.0 mg/kg/injection, schedule: Q01DX005 (ip), vehicle: saline
  T/C: 104 % of control
dose: 200.0 mg/kg/injection, schedule: Q01DX005 (ip), vehicle: saline
  T/C: 100 % of control
dose: 800.0 mg/kg/injection, schedule: Q01DX005 (ip), vehicle: saline
  T/C: 119 % of control

## COc1ccc(CC2C(=O)NC(C)C(=O)N(C)C3C(=O)N(C)C(Cc4ccc(O)c(c4)Oc4ccc(cc4)C3O)C(=O)NC(C)C(=O)NC(C)C(=O)N2C)cc1 (stereo unspecified)
dose: 0.13 mg/kg/injection, schedule: Q01DX005 (ip), vehicle: saline
  T/C: 103 % of control
dose: 0.25 mg/kg/injection, schedule: Q01DX005 (ip), vehicle: saline
  T/C: 98 % of control
dose: 0.5 mg/kg/injection, schedule: Q01DX005 (ip), vehicle: saline
  T/C: 98 % of control
dose: 1.0 mg/kg/injection, schedule: Q01DX005 (ip), vehicle: saline
  T/C: 95 % of control

## Nc1ncnc2nc[nH]c12
dose: 128.0 mg/kg/injection, schedule: Q01DX005 (ip), vehicle: saline with Tween-80
  T/C: 92 % of control
